Data on six compounds can be found in US20210115104A1, “AMYLIN ANALOGUES” (Zealand Pharma A/S, priority 2015, published 2021).

The EC50 is the midpoint of the concentration-response curve.

*1 amine or outer side, *2 acyl side, *3 side chain or, on linkers, in order; H or OH if unused. Where a SMILES comes first, the peptide text is derived from it. Bridges are numbered along the chain shown (N, C = ends). [ ]: non-standard residue; d: D form. The star is where a group is joined. C20 diacid = O=C(O)CCCCCCCCCCCCCCCCCCC(=O)*; γGlu = O=C(O)[C@H](CCC(=O)[*:2])N[*:1]; Hyp = O=C(O)[C@@H]1C[C@@H](O)CN1; NMeI = CC[C@H](C)[C@H](NC)C(=O)O; Aad = N[C@@H](CCCC(=O)O)C(=O)O; Orn = NCCC[C@H](N)C(=O)O; Sar = CNCC(=O)O

For assay [1], the target named is T1, human calcitonin receptor (hCTR2) (Homo sapiens, UniProt P30988).
T1 construct: expressed in transfected cells
T1 sequence (P30988 25-474): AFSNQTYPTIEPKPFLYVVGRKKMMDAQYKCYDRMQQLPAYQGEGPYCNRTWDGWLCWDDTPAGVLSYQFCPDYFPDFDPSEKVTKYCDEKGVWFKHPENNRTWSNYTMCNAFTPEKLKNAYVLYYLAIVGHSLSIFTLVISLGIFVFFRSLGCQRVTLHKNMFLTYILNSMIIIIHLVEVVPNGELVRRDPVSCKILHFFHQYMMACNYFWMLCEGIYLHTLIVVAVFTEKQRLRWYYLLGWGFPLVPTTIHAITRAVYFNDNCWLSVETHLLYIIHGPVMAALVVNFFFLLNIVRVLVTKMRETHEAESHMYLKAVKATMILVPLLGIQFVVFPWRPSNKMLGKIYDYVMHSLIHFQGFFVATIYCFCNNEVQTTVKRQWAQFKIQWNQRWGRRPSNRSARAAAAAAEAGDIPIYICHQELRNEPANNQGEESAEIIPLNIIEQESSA
As to the kind of experiment: hCTR2 cAMP assay (AlphaScreen) in COS7 cells. The assay is classed as cell-based. The note with it: cAMP induction, COS7 cells expressing hCTR2; Table 1; read-out: hCTR2 EC50. The procedure, abridged: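 Stable hCTR2 clone in RAMP-naïve COS7 cells stimulated 15 min at 37 °C with increasing peptide concentrations in Tyrode buffer pH 7.4 containing IBMX and 0.1% casein. cAMP in lysates measured by AlphaScreen; EC50 from 4-parameter logistic fit.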

For assay [2], the target named is T2, human amylin receptor 3 (hAMYR3), hCTR2 co-expressed with hRAMP3 (Homo sapiens, UniProt O60896+P30988).
T2 construct: expressed in transfected cells
T2 sequence (P30988 25-474): T1 sequence (P30988 25-474)
T2 sequence (O60896 24-148 partner): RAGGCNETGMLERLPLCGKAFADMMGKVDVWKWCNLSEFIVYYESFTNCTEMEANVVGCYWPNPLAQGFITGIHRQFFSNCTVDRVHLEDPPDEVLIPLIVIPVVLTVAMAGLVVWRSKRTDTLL
The assay is described as follows: hAMYR3 cAMP assay (AlphaScreen) in COS7 cells. The assay is classed as cell-based. The note with it: cAMP induction, COS7 cells expressing hAMYR3; Table 1; read-out: hAMYR3 EC50. The procedure, abridged: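 Stable COS7 clone co-expressing hCTR2 and hRAMP3 was exposed to increasing peptide concentrations in Tyrode buffer (pH 7.4) with 100 µM IBMX and 0.1% casein for 15 min at 37 °C. Lysate cAMP was measured by AlphaScreen; EC50 came from 4-parameter logistic fitting.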

Regarding `CC[C@H](C)[C@@H](C(=O)N[C@@H](CC(C)C)C(=O)N[C@@H](CO)C(=O)N[C@@H](CO)C(=O)N[C@H](C(=O)N[C@@H](CCC(=O)O)C(=O)N[C@H](C(=O)NCC(=O)N[C@@H](CO)C(=O)N[C@@H](CO)C(=O)N[C@H](C(=O)N1CCC[C@H]1C(N)=O)[C@@H](C)O)C(C)C)[C@@H](C)O)N(C)C(=O)[C@H](C)NC(=O)CN(C)C(=O)[C@H](Cc1ccccc1)NC(=O)[C@H](CO)NC(=O)[C@H](CO)NC(=O)[C@H](CCCNC(=N)N)NC(=O)[C@@H](NC(=O)[C@H](CC(C)C)NC(=O)[C@H](Cc1ccccc1)NC(=O)[C@H](Cc1c[nH]cn1)NC(=O)[C@H](C)NC(=O)[C@H](CC(C)C)NC(=O)[C@H](CCCNC(=N)N)NC(=O)[C@H](CCC(=O)O)NC(=O)[C@@H](NC(=O)[C@H](C)NC(=O)[C@@H]1CSSC[C@H](NC(=O)[C@H](CCCNC(=N)N)NC(=O)CC[C@H](NC(=O)CCCCCCCCCCCCCCCCCCC(=O)O)C(=O)O)C(=O)NCC(=O)N[C@@H]([C@@H](C)O)C(=O)N[C@@H](C)C(=O)N[C@@H]([C@@H](C)O)C(=O)N1)[C@@H](C)O)[C@@H](C)O` [Compound 46, [19CD]-isoGlu-R-C( )-GTAT-C( )-ATERLAHFLTRSSF-Gly(Me)-A-Ile(Me)-LSSTEVGSSTP-NH2] ({C20 diacid-γGlu}-RCGTATCATERLAHFLTRSSF[Sar]A[NMeI]LSSTEVGSSTP-NH2; disulfide 2-7), the EC50 in assay [1] worked out at 0.1 nM; in assay [2], 0.14 nM.

In the case of `CC[C@H](C)[C@@H](C(=O)N[C@@H](CC(C)C)C(=O)N[C@@H](CO)C(=O)N[C@@H](CO)C(=O)N[C@H](C(=O)N[C@@H](CCC(=O)O)C(=O)N[C@H](C(=O)NCC(=O)N[C@@H](CO)C(=O)N[C@@H](CCCN)C(=O)N[C@H](C(=O)N1CCC[C@H]1C(N)=O)[C@@H](C)O)C(C)C)[C@@H](C)O)N(C)C(=O)[C@H](C)NC(=O)CN(C)C(=O)[C@H](Cc1ccccc1)NC(=O)[C@H](CO)NC(=O)[C@H](CO)NC(=O)[C@H](CCCNC(=N)N)NC(=O)[C@@H](NC(=O)[C@H](CC(C)C)NC(=O)[C@H](Cc1ccccc1)NC(=O)[C@H](Cc1c[nH]cn1)NC(=O)[C@H](C)NC(=O)[C@H](CC(C)C)NC(=O)[C@H](CCCNC(=N)N)NC(=O)[C@H](CCC(=O)O)NC(=O)[C@@H](NC(=O)[C@H](C)NC(=O)[C@@H]1CSSC[C@H](NC(=O)[C@H](CCCNC(=N)N)NC(=O)CC[C@H](NC(=O)CCCCCCCCCCCCCCCCCCC(=O)O)C(=O)O)C(=O)NCC(=O)N[C@@H]([C@@H](C)O)C(=O)N[C@@H](C)C(=O)N[C@@H]([C@@H](C)O)C(=O)N1)[C@@H](C)O)[C@@H](C)O` [Compound 47, [19CD]-isoGlu-R-C( )-GTAT-C( )-ATERLAHFLTRSSF-Gly(Me)-A-Ile(Me)-LSSTEVGS-Orn-TP-NH2] ({C20 diacid-γGlu}-RCGTATCATERLAHFLTRSSF[Sar]A[NMeI]LSSTEVGS[Orn]TP-NH2; disulfide 2-7), the EC50 was found to be 0.1 nM in assay [1] and 0.19 nM in assay [2].

For `CC[C@H](C)[C@@H](C(=O)N[C@@H](CC(C)C)C(=O)N[C@@H](CO)C(=O)N[C@@H](CO)C(=O)N[C@H](C(=O)N[C@@H](CCC(=O)O)C(=O)N[C@H](C(=O)NCC(=O)N[C@@H](CO)C(=O)N[C@@H](CC(N)=O)C(=O)N[C@H](C(=O)N1C[C@H](O)C[C@H]1C(N)=O)[C@@H](C)O)C(C)C)[C@@H](C)O)N(C)C(=O)[C@H](C)NC(=O)CN(C)C(=O)[C@H](Cc1ccccc1)NC(=O)[C@H](CO)NC(=O)[C@H](CO)NC(=O)[C@H](CCCNC(=N)N)NC(=O)[C@H](CCCC(=O)O)NC(=O)[C@H](CC(C)C)NC(=O)[C@H](Cc1ccccc1)NC(=O)[C@H](Cc1c[nH]cn1)NC(=O)[C@H](C)NC(=O)[C@H](CC(C)C)NC(=O)[C@H](CCCNC(=N)N)NC(=O)[C@H](CCC(N)=O)NC(=O)[C@@H](NC(=O)[C@H](C)NC(=O)[C@@H]1CSSC[C@H](NC(=O)[C@H](CCCNC(=N)N)NC(=O)CC[C@H](NC(=O)CCCCCCCCCCCCCCCCCCC(=O)O)C(=O)O)C(=O)N[C@@H](CC(N)=O)C(=O)N[C@@H]([C@@H](C)O)C(=O)N[C@@H](C)C(=O)N[C@@H]([C@@H](C)O)C(=O)N1)[C@@H](C)O` [Compound 50, [19CD]-isoGlu-R-C( )-NTAT-C( )-ATQRLAHFL-Aad-RSSF-Gly(Me)-A-Ile(Me)-LSSTEVGSNT-Hyp-NH2] ({C20 diacid-γGlu}-RCNTATCATQRLAHFL[Aad]RSSF[Sar]A[NMeI]LSSTEVGSNT[Hyp]-NH2; disulfide 2-7), the results for the concentration giving a half-maximal response (EC50) in assay [1] and in assay [2] were 0.12 nM and 0.19 nM, respectively.

As to `CC[C@H](C)[C@@H](C(=O)N[C@@H](CC(C)C)C(=O)N[C@@H](CO)C(=O)N[C@@H](CO)C(=O)N[C@H](C(=O)N[C@@H](CCC(=O)O)C(=O)N[C@H](C(=O)NCC(=O)N[C@@H](CO)C(=O)N[C@@H](CC(N)=O)C(=O)N[C@H](C(=O)N1CCC[C@H]1C(N)=O)[C@@H](C)O)C(C)C)[C@@H](C)O)N(C)C(=O)[C@H](C)NC(=O)CN(C)C(=O)[C@H](Cc1ccccc1)NC(=O)[C@H](CO)NC(=O)[C@H](CO)NC(=O)[C@H](CCCNC(=N)N)NC(=O)[C@H](CCC(N)=O)NC(=O)[C@H](CC(C)C)NC(=O)[C@H](Cc1ccccc1)NC(=O)[C@H](Cc1c[nH]cn1)NC(=O)[C@H](C)NC(=O)[C@H](CC(C)C)NC(=O)[C@H](CCCNC(=N)N)NC(=O)[C@H](CCC(=O)O)NC(=O)[C@@H](NC(=O)[C@H](C)NC(=O)[C@@H]1CSSC[C@H](NC(=O)[C@H](CCCNC(=N)N)NC(=O)CC[C@H](NC(=O)CCCCCCCCCCCCCCCCCCC(=O)O)C(=O)O)C(=O)N[C@@H](CC(N)=O)C(=O)N[C@@H]([C@@H](C)O)C(=O)N[C@@H](C)C(=O)N[C@@H]([C@@H](C)O)C(=O)N1)[C@@H](C)O` [Compound 62, [19CD]-isoGlu-R-C( )-NTAT-C( )-ATERLAHFLQRSSF-Gly(Me)-A-Ile(Me)-LSSTEVGSNTP-NH2] ({C20 diacid-γGlu}-RCNTATCATERLAHFLQRSSF[Sar]A[NMeI]LSSTEVGSNTP-NH2; disulfide 2-7), the EC50 in assay [1] was 0.18 nM; in assay [2], 0.22 nM.

Regarding `CC[C@H](C)[C@@H](C(=O)N[C@@H](CC(C)C)C(=O)N[C@@H](CO)C(=O)N[C@@H](CO)C(=O)N[C@H](C(=O)N[C@@H](CCC(=O)O)C(=O)N[C@H](C(=O)NCC(=O)N[C@@H](CO)C(=O)N[C@@H](CC(N)=O)C(=O)N[C@H](C(=O)N1C[C@H](O)C[C@H]1C(N)=O)[C@@H](C)O)C(C)C)[C@@H](C)O)N(C)C(=O)[C@H](C)NC(=O)CN(C)C(=O)[C@H](Cc1ccccc1)NC(=O)[C@H](CO)NC(=O)[C@H](CO)NC(=O)[C@H](CCCNC(=N)N)NC(=O)[C@H](CCC(N)=O)NC(=O)[C@H](CC(C)C)NC(=O)[C@H](Cc1ccccc1)NC(=O)[C@H](Cc1c[nH]cn1)NC(=O)[C@H](C)NC(=O)[C@H](CC(C)C)NC(=O)[C@H](CCCNC(=N)N)NC(=O)[C@H](CCC(N)=O)NC(=O)[C@@H](NC(=O)[C@H](C)NC(=O)[C@@H]1CSSC[C@H](NC(=O)[C@H](CCCNC(=N)N)NC(=O)CC[C@H](NC(=O)CCCCCCCCCCCCCCCCCCC(=O)O)C(=O)O)C(=O)N2CCC[C@H]2C(=O)N[C@@H]([C@@H](C)O)C(=O)N[C@@H](C)C(=O)N[C@@H]([C@@H](C)O)C(=O)N1)[C@@H](C)O` [Compound 64, [19CD]-isoGlu-R-C( )-PTAT-C( )-ATQRLAHFLQRSSF-Gly(Me)-A-Ile(Me)-LSSTEVGSNT-Hyp-NH2] ({C20 diacid-γGlu}-RCPTATCATQRLAHFLQRSSF[Sar]A[NMeI]LSSTEVGSNT[Hyp]-NH2; disulfide 2-7), the concentration giving a half-maximal response (EC50) in assay [1] was found to be 0.11 nM; in assay [2], 0.15 nM.

Consider `CC[C@H](C)[C@@H](C(=O)N[C@@H](CC(C)C)C(=O)N[C@@H](CO)C(=O)N[C@@H](CO)C(=O)N[C@H](C(=O)N[C@@H](CCC(=O)O)C(=O)N[C@H](C(=O)NCC(=O)N[C@@H](CO)C(=O)N[C@@H](CC(N)=O)C(=O)N[C@H](C(=O)N1CCC[C@H]1C(N)=O)[C@@H](C)O)C(C)C)[C@@H](C)O)N(C)C(=O)[C@H](C)NC(=O)CN(C)C(=O)[C@H](Cc1ccccc1)NC(=O)[C@H](CO)NC(=O)[C@H](CO)NC(=O)[C@H](CCCNC(=N)N)NC(=O)[C@H](CCC(N)=O)NC(=O)[C@H](CC(C)C)NC(=O)[C@H](Cc1ccccc1)NC(=O)[C@H](CC(=O)O)NC(=O)[C@H](C)NC(=O)[C@H](CC(C)C)NC(=O)[C@H](CCCNC(=N)N)NC(=O)[C@H](CCC(=O)O)NC(=O)[C@@H](NC(=O)[C@H](C)NC(=O)[C@@H]1CSSC[C@H](NC(=O)[C@H](CCCNC(=N)N)NC(=O)CC[C@H](NC(=O)CCCCCCCCCCCCCCCCCCC(=O)O)C(=O)O)C(=O)N[C@@H](CC(N)=O)C(=O)N[C@@H]([C@@H](C)O)C(=O)N[C@@H](C)C(=O)N[C@@H]([C@@H](C)O)C(=O)N1)[C@@H](C)O` [Compound 66, [19CD]-isoGlu-R-C( )-NTAT-C( )-ATERLADFLQRSSF-Gly(Me)-A-Ile(Me)-LSSTEVGSNTP-NH2] ({C20 diacid-γGlu}-RCNTATCATERLADFLQRSSF[Sar]A[NMeI]LSSTEVGSNTP-NH2; disulfide 2-7), for which the 50% effective concentration (EC50) in assay [1] amounted to 0.19 nM; in assay [2], 0.3 nM.
